In PubChem BioAssay AID2060900 (Molecular Pharmacology Branch, DTP, NCI, 2025):

Test system: 521955-158-R2-J5-PDC complex spheroids, viability
Assay: Anticancer human tumor 521955-158-R2-J5-PDC patient-derived pancreatic carcinoma cell line growth inhibition [RAS]
Conditions: for IC50: curve of first compound; for viability, T/C: stronger effect = lower value
From the text: RAS pathway inhibitors in Combinations in Complex Spheroids
A high-throughput screen of multi-cell type tumor spheroids was designed to identify active combinations of RAS pathway inhibitors and targeted small molecules. Complex spheroids include a stromal component modeled by human endothelial cells (HUVEC) and fibroblasts modeled by human mesenchymal stem cells (MSCs). The concentration ranges selected for each drug and investigational agent were based upon clinically achievable concentrations if the clinical Cmax of the agent was known.
Compounds. The drugs and investigational agents: abemaciclib (NSC768073), cobimetinib (NSC768068), divarasib (GDC6063, NSC841802), docetaxel (NSC628503), GDC-1971 (RLY-1971, NSC841576), gemcitabine (NSC613327), inavolisib (NSC800729), ipatasertib (NSC767898), KB-0742 (NSC834161), MRTX-1133 (NSC836407), osimertinib (NSC779217), RMC-4630 (NSC839698), RMC-6236 (NSC851965), RMC-6291 (NSC852671), Ro-3306 (NSC812927), sapanisertib (NSC764658), SN-38 (NSC673596), staurosporine (NSC755774), SY5609 (NSC837396), and tovorafenib (DAY101, NSC766906), were obtained from the National Cancer Institute (NCI) Developmental Therapeutics Program Chemical Repository. The FDA-approved anticancer drug set is available from the NCI Developmental Therapeutics Program. […] The stock solutions were prepared in dimethyl sulfoxide (DMSO, Sigma-Aldrich, St. Louis, MO, cat. D2650) at 800-fold the tested concentration and stored at -70 degrees C prior to their use. All drugs and investigational agents were tested over a range starting from a high concentration at or near the clinical Cmax and decreasing in half-log increments. If the clinical Cmax for an agent had not been determined, the highest concentration tested was 10 microM.
Cell Culture. All cells were maintained in an incubator at 37 degrees C and 5% CO2 with 95% humidity. The PDC lines were cultured according to standard operating procedures established by the NCI PDMR. All PDCs were thawed and cultured in Matrigel-coated flasks prepared with a working solution of 1X Ham's F-12 nutrient mix, without supplementation (Invitrogen, Waltham, MA, cat. 11765054), 100 U/mL penicillin-streptomycin (Invitrogen, cat. 15140122), and 2.5% Matrigel (Corning Inc., Corning, NY, cat. 354248) for the first three passages. The 362531-283-R-J2-PDC and 782815-120-R-J1-PDC lines were cultured in 6C/Colon 1B media, which includes advanced DMEM/F-12 (Thermo Fisher Scientific, cat. 12634028), 10 mM HEPES (Thermo Fisher Scientific, cat. 15630080), 1X GlutaMAX supplement (Thermo Fisher Scientific, cat. 35050061), 0.1 mg/mL primocin (InvivoGen, San Diego, CA, cat. ant-pm-2), 10% defined fetal bovine serum, heat inactivated (HyClone Laboratories Inc., Logan, UT, cat. SH30070.03HI), 50% L-WRN conditioned media (ATCC, cat. CRL-3276), 1.25 mM N-Acetyl-L-cysteine (Sigma-Aldrich, cat. A9165), 10 mM nicotinamide (Sigma-Aldrich, cat. N0636), 1X B-27 supplement (Thermo Fisher Scientific, cat. 17504044), 1X N-2 supplement (Thermo Fisher Scientific, cat. 17502048), 50 ng/mL human EGF (Thermo Fisher Scientific, cat. PHG0311), and 10 microM Y-27632 dihydrochloride (Tocris Bioscience, cat. 1254). The K12877-001-R-J1-PDC line was cultured in 6I media, which includes all 6C/Colon 1B media plus 10 ng/mL human FGF-10 (PeproTech, cat. 100-26), 1 ng/mL human FGF-2 (PeproTech, cat. 100-18B), 1 µM prostaglandin E2 (Tocris Bioscience, cat. 2296), […] hydrocortisone (Sigma-Aldrich, cat. H4001), and […] bovine insulin (Sigma-Aldrich, cat. I6634). The K86415-001-R-J1-PDC line was cultured in 6D media, which includes all 6C/Colon 1B media components minus the L-WRN conditioned media. The 485176-168-R4-J1-PDC was cultured in PANC media, which includes all 6C/Colon 1B media plus 100 ng/mL human FGF-10 (PeproTech, cat. 100-26), 500 nM SB-431542 (Selleckchem, cat. S1067), and 10 nM gastrin (Tocris Bioscience, cat. 3006). […]
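Note: compound exposure lasted seven days before the viability read.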
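Throughout, for viability, T/C: spheroids also contain HUVEC endothelial cells and mesenchymal stem cells as stroma.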

CC(C)n1nc(-c2ccc3oc(N)nc3c2)c2c(N)ncnc21 + CCn1c(-c2cc(N3CCN(C)CC3)cnc2C(C)OC)c2c3cc(ccc31)-c1csc(n1)CC(NC(=O)C1CC1C)C(=O)N1CCCC(N1)C(=O)OCC(C)(C)C2
IC50 (second compound 0.000949 µM): < 0.316 nM
IC50 (second compound 0.003 µM): < 0.316 nM
IC50 (second compound 0.00949 µM): < 0.316 nM
IC50 (second compound 0.03 µM): < 0.316 nM
IC50 (second compound 0.0949 µM): < 0.316 nM
IC50 (second compound 0.3 µM): < 0.316 nM
viability, T/C (second compound 0.000949 µM, first compound 0.000316 µM): 38.5%
viability, T/C (second compound 0.000949 µM, first compound 0.001 µM): 40.2%
viability, T/C (second compound 0.000949 µM, first compound 0.00316 µM): 37.6%
viability, T/C (second compound 0.000949 µM, first compound 0.01 µM): 39.8%
viability, T/C (second compound 0.000949 µM, first compound 0.0316 µM): 22.7%
viability, T/C (second compound 0.000949 µM, first compound 0.1 µM): 21.2%
viability, T/C (second compound 0.003 µM, first compound 0.000316 µM): 34.6%
viability, T/C (second compound 0.003 µM, first compound 0.001 µM): 38.8%
viability, T/C (second compound 0.003 µM, first compound 0.00316 µM): 28.7%
viability, T/C (second compound 0.003 µM, first compound 0.01 µM): 22.6%
viability, T/C (second compound 0.003 µM, first compound 0.0316 µM): 11.2%
viability, T/C (second compound 0.003 µM, first compound 0.1 µM): 7.9%
viability, T/C (second compound 0.00949 µM, first compound 0.000316 µM): 31.3%
viability, T/C (second compound 0.00949 µM, first compound 0.001 µM): 30.2%
viability, T/C (second compound 0.00949 µM, first compound 0.00316 µM): 34.9%
viability, T/C (second compound 0.00949 µM, first compound 0.01 µM): 21.4%
viability, T/C (second compound 0.00949 µM, first compound 0.0316 µM): 14.2%
viability, T/C (second compound 0.00949 µM, first compound 0.1 µM): 6.83%
viability, T/C (second compound 0.03 µM, first compound 0.000316 µM): 25.3%
viability, T/C (second compound 0.03 µM, first compound 0.001 µM): 22%
viability, T/C (second compound 0.03 µM, first compound 0.00316 µM): 20.4%
viability, T/C (second compound 0.03 µM, first compound 0.01 µM): 17.9%
viability, T/C (second compound 0.03 µM, first compound 0.0316 µM): 11.7%
viability, T/C (second compound 0.03 µM, first compound 0.1 µM): 6.04%
viability, T/C (second compound 0.0949 µM, first compound 0.000316 µM): 11.8%
viability, T/C (second compound 0.0949 µM, first compound 0.001 µM): 11%
viability, T/C (second compound 0.0949 µM, first compound 0.00316 µM): 15.8%
viability, T/C (second compound 0.0949 µM, first compound 0.01 µM): 12.2%
viability, T/C (second compound 0.0949 µM, first compound 0.0316 µM): 10%
viability, T/C (second compound 0.0949 µM, first compound 0.1 µM): 3.64%
viability, T/C (second compound 0.3 µM, first compound 0.000316 µM): 9.8%
viability, T/C (second compound 0.3 µM, first compound 0.001 µM): 10.4%
viability, T/C (second compound 0.3 µM, first compound 0.00316 µM): 7.93%
viability, T/C (second compound 0.3 µM, first compound 0.01 µM): 7.87%
viability, T/C (second compound 0.3 µM, first compound 0.0316 µM): 6.76%
viability, T/C (second compound 0.3 µM, first compound 0.1 µM): 3.75%
